Consider one molecule from patent US20090264392A1, “TREATING EOSINOPHILIC ESOPHAGITIS” (Meritage Pharma, Inc., priority 2008, published 2009).

The test system of data set [1] is eosinophilic esophogitis (EoE) patients. Description: Example 1: budesonide gel therapy in patients with EoE. The settings on record: tolerance comparison; seven patients who received fluticasone and budesonide therapy. It is filed as in vivo, human. The protocol: Eighteen patients were entered into the study (mean age 41; 5 females; 13 males). 16 patients had more than 15 eos/HPF on tissue obtained from the esophagus by biopsy during endoscopy. […] Both these patients responded completely to steroids. The mean serum eosinophil count was 215. Three patients had normal endoscopies. Six patients had strictures. […] Mucosal fragility was described in one patient. […] 14 patients underwent allergy testing.
The following symptoms were recorded: dysphagia (18/18), heartburn (9/18), regurgitation (4/18), asthma (5/18), allergic skin disease (1/18), seasonal allergies (8/18), proton pump inhibitor (PPI) medication use to treat esophageal reflux disease (10/18), and history of food impaction (15/18).
Budesonide gel (3 mg/10 mL Rincinol) was formulated as provided below. Preparation involved accurate weighing and measuring of the ingredients. Trituration of the powder into the Rincinol liquid was performed using geometric dilution techniques. The product was stirred using a stir plate, packaged, and labeled.
The standard dose was 3 mg twice a day for one week, which was then decreased to once a day for six weeks. 11 of 18 patients received standard dosing. Six of 18 patients received an alternate treatment regiment of 3 mg twice a day for a variable treatment period of time of greater than one week. The longest of which was eight months. […]

For data set [2], the system named is patients with greater than 15 eos/HPF and solid food dysphagia (EoE). In words: Example 2: BRG therapy of eosinophilic esophagitis in adults. The following applies: 8 patients who had previously received fluticasone. It is filed as in vivo, human. The protocol:
An oral gel combining budesonide with the mucosal adherent preparation Rincinol (the combination referred to as “BRG”) was compounded. Patients with abnormal Mayo dysphagia questionnaires underwent EGD with biopsies. 16 patients with greater than 15 eos/HPF and solid food dysphagia were enrolled in the study and treated with BRG. Patients were instructed to take BRG 3mg/10 cc BID. If patients noted marked improvement at one week, they were switched to once daily BRG for 6 weeks; otherwise they were continued on BID BRG for a total of 6 weeks. Dysphagia symptoms and BRG side effects over the last two weeks of treatment were assessed by personal interview. Symptoms were evaluated on a scale of dysphagia resolution: <25%, 25-49%, 50-74%, 75-99% or complete resolution. Those patients, who had previously utilized topical fluticasone for EoE, were asked to compare BRG vs topical fluticasone with respect to treatment effect and tolerance.

The structures appear in SMILES notation.

For `C[C@@H]1C[C@H]2[C@@H]3C[C@H](F)C4=CC(=O)C=C[C@]4(C)[C@@]3(F)[C@@H](O)C[C@]2(C)[C@@]1(O)C(=O)SCF` [fluticasone], in data set [1], the “patients who preferred fluticasone” value is given as “Two of the seven”. In data set [2], the “patients who favored fluticasone (tolerance)” value is reported as 25%.
